pEC50: −log10 of the molar value. In brackets after ≈: the same amount, converted by molar mass. Like-named read-outs stand apart in the source and are kept apart here.
What was measured:
A. baumannii ATCC 19606 = test: microbe, parasite or virus in culture; format: cell-based; conditions: Acinetobacter baumannii
A. baumannii PBP2 = A. baumannii PBP2 (Acinetobacter baumannii, UniProt D0C8Z9); test: Bocillin-FL competition binding via gel filtration, A. baumannii PBP2
How it was run: (§1)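 Competitive equilibrium binding with Bocillin-FL reporter: PBP pre-incubated with inhibitor dilutions, Bocillin-FL added, 15 min incubation. Labelled enzyme isolated by size-exclusion spin plates, fluorescence measured; EC50 obtained by fitting bound fraction against inhibitor concentration with a Hill-coefficient model.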

A. baumannii 1258916 = test: microbe, parasite or virus in culture; format: cell-based, Acinetobacter baumannii
A. baumannii CDC-0033 = test: microbe, parasite or virus in culture; format: cell-based; conditions: Acinetobacter baumannii
[1] = system: B. humptydooensis ATCC BAA-2767; test: microbe, parasite or virus in culture; format: cell-based; conditions: Burkholderia humptydooensis, ATCCBAA2767, read-out: Minimum inhibitory concentration (MIC), B. humptydooensis ATCC BAA-2767
P. aeruginosa ATCC 35151 = test: microbe, parasite or virus in culture; format: cell-based; conditions: Pseudomonas aeruginosa, ATCC35151, read-out: Minimum inhibitory concentration, P. aeruginosa ATCC 35151
A. baumannii ATCC 17978 = test: microbe, parasite or virus in culture; format: cell-based; conditions: Acinetobacter baumannii
A. baumannii CDC-0045 = test: microbe, parasite or virus in culture; format: cell-based; conditions: Acinetobacter baumannii
A. baumannii PBP1a = biological target: T1, A. baumannii PBP1a (Acinetobacter baumannii, UniProt A0ABX6CK30); test: Bocillin-FL competition binding via gel filtration, A. baumannii PBP1a; conditions: competition binding assay using Bocillin-FL via gel filtration; read-out: A. baumannii PBP1a Potency
T1 sequence (A0ABX6CK30 1-851): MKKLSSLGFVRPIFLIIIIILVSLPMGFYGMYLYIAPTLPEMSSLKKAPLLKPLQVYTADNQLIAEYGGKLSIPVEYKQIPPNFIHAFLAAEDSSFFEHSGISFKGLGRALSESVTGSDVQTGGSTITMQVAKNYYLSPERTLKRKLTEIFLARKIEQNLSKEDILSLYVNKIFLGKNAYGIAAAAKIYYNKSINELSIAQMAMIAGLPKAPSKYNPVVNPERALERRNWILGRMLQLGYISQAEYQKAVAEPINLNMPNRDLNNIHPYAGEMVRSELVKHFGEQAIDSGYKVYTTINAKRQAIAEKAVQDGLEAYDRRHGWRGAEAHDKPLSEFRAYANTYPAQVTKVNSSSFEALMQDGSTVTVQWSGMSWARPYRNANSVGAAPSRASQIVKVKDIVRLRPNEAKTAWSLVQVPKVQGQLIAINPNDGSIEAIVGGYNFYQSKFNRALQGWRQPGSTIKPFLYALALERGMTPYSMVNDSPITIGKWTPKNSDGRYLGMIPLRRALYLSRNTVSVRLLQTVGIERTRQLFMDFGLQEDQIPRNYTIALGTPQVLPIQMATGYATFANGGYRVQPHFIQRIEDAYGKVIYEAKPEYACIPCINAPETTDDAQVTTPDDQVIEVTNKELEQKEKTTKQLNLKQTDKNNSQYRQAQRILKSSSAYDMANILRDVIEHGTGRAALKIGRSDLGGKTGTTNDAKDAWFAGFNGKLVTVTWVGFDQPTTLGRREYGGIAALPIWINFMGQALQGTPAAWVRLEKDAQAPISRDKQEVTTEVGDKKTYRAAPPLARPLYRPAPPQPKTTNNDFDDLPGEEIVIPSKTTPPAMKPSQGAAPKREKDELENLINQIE
How it was run: as §1

P. aeruginosa ATCC 27853 = test: microbe, parasite or virus in culture; format: cell-based; conditions: Pseudomonas aeruginosa, ATCC27853, read-out: Minimum inhibitory concentration, P. aeruginosa ATCC 27853
A. baumannii CDC-0036 = test: microbe, parasite or virus in culture; format: cell-based; conditions: Acinetobacter baumannii
P. aeruginosa CDC-0110 = test: microbe, parasite or virus in culture; format: cell-based; conditions: Pseudomonas aeruginosa, CDC0110, read-out: Minimum inhibitory concentration, P. aeruginosa CDC-0110
[2] = ATCC19606, read-out: Minimum inhibitory concentration (MIC), A. baumannii ATCC 19606
[3] = Acinetobacter baumannii, 1258916, read-out: Minimum inhibitory concentration (MIC), A. baumannii 1258916
[4] = CDC0033, read-out: Minimum inhibitory concentration (MIC), A. baumannii CDC-0033
[5] = ATCC17978, read-out: Minimum inhibitory concentration (MIC), A. baumannii ATCC 17978
[6] = CDC0045, read-out: Minimum inhibitory concentration (MIC), A. baumannii CDC-0045
[7] = CDC0036, read-out: Minimum inhibitory concentration (MIC), A. baumannii CDC-0036
[8] = ATCC19606, read-out: MIC, A. baumannii ATCC 19606
[9] = Acinetobacter baumannii, 1258916, read-out: MIC, A. baumannii 1258916
[10] = CDC0033, read-out: MIC, A. baumannii CDC-0033
[11] = ATCC17978, read-out: MIC, A. baumannii ATCC 17978
[12] = CDC0045, read-out: MIC, A. baumannii CDC-0045
[13] = CDC0036, read-out: MIC, A. baumannii CDC-0036

Chain of A. baumannii PBP2 (D0C8Z9 whole entry): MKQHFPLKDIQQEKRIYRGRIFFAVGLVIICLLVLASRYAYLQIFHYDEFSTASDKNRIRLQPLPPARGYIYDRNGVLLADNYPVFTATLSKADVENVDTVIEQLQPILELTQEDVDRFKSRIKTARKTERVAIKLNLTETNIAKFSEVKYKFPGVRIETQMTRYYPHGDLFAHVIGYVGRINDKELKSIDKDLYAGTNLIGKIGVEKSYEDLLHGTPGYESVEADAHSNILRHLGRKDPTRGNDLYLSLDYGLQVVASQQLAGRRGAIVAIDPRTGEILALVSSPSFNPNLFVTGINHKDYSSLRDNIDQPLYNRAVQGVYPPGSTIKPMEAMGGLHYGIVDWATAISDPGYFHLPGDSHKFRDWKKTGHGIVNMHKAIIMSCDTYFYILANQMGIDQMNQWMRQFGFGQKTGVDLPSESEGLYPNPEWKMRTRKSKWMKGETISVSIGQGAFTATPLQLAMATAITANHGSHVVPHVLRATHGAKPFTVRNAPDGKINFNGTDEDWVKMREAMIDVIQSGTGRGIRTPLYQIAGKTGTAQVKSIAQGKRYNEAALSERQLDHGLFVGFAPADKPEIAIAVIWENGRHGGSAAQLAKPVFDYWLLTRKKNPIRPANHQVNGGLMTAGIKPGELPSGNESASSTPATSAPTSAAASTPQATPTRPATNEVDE

Compound	MIC (A. baumannii ATCC 19606; [2]) [µg/mL]	pEC50 (A. baumannii PBP2)	MIC (A. baumannii 1258916; [3]) [µg/mL]	MIC (A. baumannii CDC-0033; [4]) [µg/mL]	MIC [1] [µg/mL]	MIC (P. aeruginosa ATCC 35151) [µg/mL]	MIC (A. baumannii ATCC 17978; [5]) [µg/mL]	MIC (A. baumannii CDC-0045; [6]) [µg/mL]	pEC50 (A. baumannii PBP1a)	MIC (P. aeruginosa ATCC 27853) [µg/mL]	MIC (A. baumannii CDC-0036; [7]) [µg/mL]	MIC (A. baumannii ATCC 19606; [8]) [µg/mL]	MIC (A. baumannii 1258916; [9]) [µg/mL]	MIC (A. baumannii CDC-0033; [10]) [µg/mL]	MIC (A. baumannii ATCC 17978; [11]) [µg/mL]	MIC (P. aeruginosa CDC-0110) [µg/mL]	MIC (A. baumannii CDC-0045; [12]) [µg/mL]	MIC (A. baumannii CDC-0036; [13]) [µg/mL]
O=C(O)c1c(F)ccc2c1OB(O)[C@@H](NC(=O)C(NC(=O)N1CCN(C3CCN(C(=O)Nc4cc(O)c(F)cc4Cl)CC3)C(=O)C1=O)c1cc(F)c(O)c(O)c1Cl)C2 (stereo partly drawn) [Example 490, (3R)-3-(2-(4-(1-((2-chloro-4-fluoro-5-hydroxyphenyl)carbamoyl)piperidin-4-yl)-2,3-dioxopiperazine-1-carboxamido)-2-(2-chloro-5-fluoro-3,4-dihydroxyphenyl)acetamido)-7-fluoro-2-hydroxy-3,4-dihydro-2H-benzo[e][1,2]oxaborinine-8-carboxylic acid]	< 1	4.30 to 5.00	2 to 4 (≈ 2.34 to 4.69 µM)	2 to 4 (≈ 2.34 to 4.69 µM)	> 128	< 1	< 1	< 1	> 5.00	2 to 4 (≈ 2.34 to 4.69 µM)	2 to 4 (≈ 2.34 to 4.69 µM)							
O=C(O)c1c(F)ccc2c1OB(O)[C@@H](NC(=O)[C@H](NC(=O)N1CCN(C3CCN(C(=O)c4cc(O)c(O)c(Cl)c4)CC3)C1=O)c1ccc(P(=O)(O)O)cc1)C2 [Example 496, (R)-3-((R)-2-(3-(1-(3-chloro-4,5-dihydroxybenzoyl)piperidin-4-yl)-2-oxoimidazolidine-1-carboxamido)-2-(4-phosphonophenyl)acetamido)-7-fluoro-2-hydroxy-3,4-dihydro-2H-benzo[e][1,2]oxaborinine-8-carboxylic acid]	< 1	> 5.00	< 1	< 1	< 1	< 1	< 1	< 1	> 5.00	< 1	< 1							
O=C(O)c1cccc2c1OB(O)[C@@H](NC(=O)[C@H](NC(=O)N1CCN(S(=O)(=O)c3ccc(O)c(O)c3Cl)C1=O)c1ccc(P(=O)(O)O)cc1)C2 [Example 509, (R)-3-((R)-2-(3-((2-chloro-3,4-dihydroxyphenyl)sulfonyl)-2-oxoimidazolidine-1-carboxamido)-2-(4-phosphonophenyl)acetamido)-2-hydroxy-3,4-dihydro-2H-benzo[e][1,2]oxaborinine-8-carboxylic acid]	< 1		< 1	< 1	< 1	< 1	< 1	< 1		< 1	< 1							
O=C(O)c1c(F)ccc2c1OB(O)[C@@H](NC(=O)C(NC(=O)N1CCN(S(=O)(=O)c3ccc(O)c(O)c3Cl)C1=O)c1ccc(P(=O)(O)O)cc1)C2 (stereo partly drawn) [Example 505, (3R)-3-(2-(3-((2-chloro-3,4-dihydroxyphenyl)sulfonyl)-2-oxoimidazolidine-1-carboxamido)-2-(4-phosphonophenyl)acetamido)-7-fluoro-2-hydroxy-3,4-dihydro-2H-benzo[e][1,2]oxaborinine-8-carboxylic acid]	< 1	> 5.00	< 1	< 1	< 1	< 1	< 1	< 1	> 5.00	< 1	< 1							
O=C(O)c1c(F)ccc2c1OB(O)[C@@H](NC(=O)[C@H](NC(=O)N1CCN(C3CCN(C(=O)c4cc(F)c(O)c(O)c4Cl)CC3)C1=O)c1ccc(P(=O)(O)O)cc1)C2 (single isomer, unassigned) [Example 495]	< 1	> 5.00	< 1	< 1	< 1	< 1	< 1	< 1	> 5.00	< 1	< 1							
O=C(NCCCS(=O)(=O)N1CCN(C(=O)N[C@H](C(=O)N[C@H]2Cc3ccc(F)c(C(=O)O)c3OB2O)c2ccc(P(=O)(O)O)cc2)C1=O)c1ccc(O)c(O)c1Cl (single isomer, unassigned) [Example 169]		3.60 to 4.30			> 128	> 128				> 128		> 128	> 128	> 128	> 128	> 128	> 128	> 128
O=C(NCCN1CCN(C(=O)N[C@@H](C(=O)N[C@H]2Cc3ccc(F)c(C(=O)O)c3OB2O)c2ccc(P(=O)(O)O)cc2)C(=O)C1=O)c1ccc(O)c(O)c1Cl [Example 503, (R)-3-((R)-2-(4-(2-(2-chloro-3,4-dihydroxybenzamido)ethyl)-2,3-dioxopiperazine-1-carboxamido)-2-(4-phosphonophenyl)acetamido)-7-fluoro-2-hydroxy-3,4-dihydro-2H-benzo[e][1,2]oxaborinine-8-carboxylic acid]	< 1	4.30 to 5.00	< 1	2 to 4 (≈ 2.53 to 5.05 µM)	< 1	< 1	< 1	2 to 4 (≈ 2.53 to 5.05 µM)	4.30 to 5.00	< 1	2 to 4 (≈ 2.53 to 5.05 µM)							
O=C(O)c1c(F)ccc2c1OB(O)[C@@H](NC(=O)[C@H](NC(=O)N1CCN(S(=O)(=O)c3ccc(O)c(O)c3Cl)C1=O)c1ccc(P(=O)(O)O)cc1)C2 [Example 506, (R)-3-((R)-2-(3-((2-chloro-3,4-dihydroxyphenyl)sulfonyl)-2-oxoimidazolidine-1-carboxamido)-2-(4-phosphonophenyl)acetamido)-7-fluoro-2-hydroxy-3,4-dihydro-2H-benzo[e][1,2]oxaborinine-8-carboxylic acid]	< 1		< 1	< 1	< 1	< 1	< 1	< 1		< 1	< 1							
O=C(O)c1c(F)ccc2c1OB(O)[C@@H](NC(=O)[C@@H](NC(=O)N1CCN(C3CCN(C(=O)c4ccc(O)cc4)CC3)C1=O)c1cc(F)c(O)c(O)c1Cl)C2 (single isomer, unassigned) [Example 462]					> 128	< 1			> 5.00	2 to 4 (≈ 2.64 to 5.28 µM)		8 to 16 (≈ 10.6 to 21.1 µM)	32 to 64 (≈ 42.2 to 84.4 µM)	32 to 64 (≈ 42.2 to 84.4 µM)	< 1	8 to 16 (≈ 10.6 to 21.1 µM)	32 to 64 (≈ 42.2 to 84.4 µM)	32 to 64 (≈ 42.2 to 84.4 µM)

Reference: patent US20240270762A1, “PENICILLIN-BINDING PROTEIN INHIBITORS” (priority 2021, published 2024)
